# Measurements taken from article PMC12162873, “Modulating phosphatase DUSP22 with BML-260 ameliorates skeletal muscle wasting via Akt independent JNK-FOXO3a repression” (EMBO Molecular Medicine, 2025).
# “And” between values parts separate entries of the source, which are not always exact repeats. Equal values may be shown once.
# Tests used:
# [1] = system: C57BL/6J mice; assay: Dex treatment mouse model of skeletal muscle atrophy, BML-260 treatment; type: in vivo; settings: TA muscle of C57BL/6 mice treated with Dex, Vehicle average = 1, n = 4
# [2] = parameters: method as in ref [9] Feng et al, 2019; settings: pH range 3 to 7.4, HPLC; ref [9] Feng et al, 2019; cited from earlier work
# [3] = system: human skeletal myotubes; assay: Dex-induced atrophy of human donor skeletal myotubes, myotube diameter; type: cell-based; settings: 10 μM Dex and 12.5 μM BML-260 for 24 h
# Source text: Figure 9 DUSP22 targeting downregulates atrogene expression in immobilized skeletal muscle and inhibits atrophy in human donor myotubes. (A) Effect of immobilization on skeletal muscle mass using the plastic EP tube method (n = 3). (B) qPCR analysis of DUSP22 expression in the TA muscle (IM = immobilized) (n = 3) (p = 0.018). (C) Plot of DUSP22 expression in relation to TA mass (n = 6). (D) Western blot analysis of DUSP22 expression (n = 3) (p = 0.1699). (E) TA mass (n = 9,7) (p = (Sham = <0.0001, BML-260 = 0.007)). […] Quantification of atrogin-1, MuRF-1, and DUSP22 levels relative to GAPDH are also shown. […]
# Human skeletal myoblasts were purchased from Thermo-Fisher Scientific, USA, re-suspended in DM and seeded onto 12-well culture plates at a density of 4.8 × 10^4 cells/well. 72 h later, the differentiated myotubes were treated with 10 μM Dex for 24 h, stained with haematoxylin and eosin (H&E) using a kit (Merck, Germany) and myotube diameter measured by light microscopy analysis of DIC captured images (Olympus CKX41, Olympus Life Science, Japan) and the NIH imaging software Image J 64 (National Institutes of Health, MD, USA). At least 80 myotubes in 5 micrographs were measured in each experimental group.
# [4] = system: C57BL/6 mice; assay: Hind limb immobilization model, BML-260 treatment; type: in vivo, mouse
# Experimental: Western blotting was carried out using the previously published protocol (Lee et al, [2020]). The NIH imaging software Image J 64 was used for densitometry analysis of the gel bands. The primary and secondary antibodies used in this study are shown in the reagent and tools table. Chemiluminescence was used to detect the secondary antibody.
# To immobilize the hind limbs, 14-week-old male C57BL/6 mice were anesthetized with isoflurane and both hind limbs were fixed with plastic EP-tubes (Axygen, MCT-175-C). To prevent the tubes from slipping, the junction between the tubes and the hind limbs were wrapped with insulating tape. BML-260 was treated as follows: (1) vehicle alone (5% DMSO + 5% tween 80) and (2) 5 mg/kg BML-260 (n = 3 per group). The mice were monitored daily and sacrificed after 14 days.
# Mice were anesthetized using ketamine (22 mg/kg; Yuhan, Republic of Korea) and xylazine (10 mg/kg; Bayer, Republic of Korea) in saline by IP injection. The quadriceps, gastrocnemius, soleus and TA muscles were then dissected and weighed. For histological analysis, the muscles were fixed by overnight incubation with 4% paraformaldehyde in PBS pH 7.4 at 4 °C. Paraffin sectioning and H&E staining were provided by the Animal Housing Facility, Gwangju Institute of Science and Technology, Republic of Korea (5 µm muscle sections using a Thermo Scientific HistoStar (Thermofisher). H&E staining was carried out with a kit (Merck, Germany)). For immunohistochemistry, TA muscle sections were permeabilized for 15 min (PBS with 0.5% Triton X-100), blocked for 1 h (5% BSA) and incubated with the primary antibody overnight at 4 °C (a list of primary and secondary antibodies used in this study are provided in Appendix Tables S4 and S5, respectively). After washing with PBS 3 times for 5 min, the sections were incubated with the secondary antibody at RT for 1 h. The nuclei were counterstained with DAPI in ProLong™ Gold Antifade Mountant (Invitrogen, P36935). Digital images were acquired with Leica DM 2500 (Leica Microsystems). Cross sectional area (CSA) and fiber size distribution was measured using the NIH imaging software Image J 64. To CSA and size distribution of different fiber types was calculated in 4 muscle section as follows: type 2 A: 30–40 fibers measured; type 2B: at least 100 fibers measured; type 2X: 30–40 fibers measured.
# [5] = 5 mg/kg BML-260, 14 days immobilization
# [6] = TA of immobilized mice (Fig EV4), Sham average = 1
# [7] = TA of immobilized mice (Fig EV4), Sham average = 1, individual animals
SMILES,"DUSP22 expression, qPCR, Average [1]",stability at pH values within normal physiological conditions [2],mean myotube diameter [3],"DUSP22 levels in TA and gastrocnemius muscles, western blot [4, 5]","MYH4 (myosin heavy chain 2B) in TA muscle, western blot [4, 5]","atrogin-1 and MuRF-1 expression in immobilized TA, western blot [4, 5]","phosphorylation level of JNK in TA muscle, western blot [4, 5]","DUSP22, western blot quantification, Average ([4]; SHAM average = 1)","DUSP22, western blot quantification ([4]; SHAM average = 1, individual animals)","DUSP22, western blot quantification, Average ([4]; TA muscle of immobilized mice (Fig EV5), Sham average = 1)","DUSP22, western blot quantification ([4]; TA muscle of immobilized mice (Fig EV5), Sham average = 1, individual animals)","p-jnk/jnk, western blot quantification, Average ([4]; TA muscle of immobilized mice, Sham average = 1)","p-jnk/jnk, western blot quantification ([4]; TA muscle of immobilized mice, Sham average = 1, individual animals)","DUSP22, western blot quantification, Average [4, 6]","MYH4, western blot quantification, Average [4, 6]","DUSP22, western blot quantification [4, 7]","MYH4, western blot quantification [4, 7]"
"C[C@@H]1C[C@H]2[C@@H]3CCC4=CC(=O)C=C[C@]4(C)[C@@]3(F)[C@@H](O)C[C@]2(C)[C@@]1(O)C(=O)CO [Dex, dexamethasone]",1.655,–,–,–,–,–,–,–,–,–,–,–,–,–,–,–,–
O=C(O)c1ccc(N2C(=O)C(=Cc3ccccc3)SC2=S)cc1 (stereo in doubt) [BML-260],–,predicted to be stable,recovered the mean myotube diameter,reduced DUSP22 levels,upregulation,downregulated,reduction,0.5293,0.9793 and 0.6244 and 0.3303 and 0.3563 and 0.317 and 0.5687,1.168,1.324 and 0.9536 and 0.9932 and 1.399,0.4787,0.7134 and 0.5569 and 0.2233 and 0.4213,1.587,0.928,1.411 and 2.335 and 2.043 and 0.8602 and 1.621 and 1.251,1.0151 and 0.5864 and 0.9197 and 0.796 and 1.189 and 1.062
